Source: US20220030866A1, “CONJUGATES OF AUXIN ANALOGS” (The State of Israel, Ministry of Agriculture & Rural …, priority 2019, published 2022)

Legend:
Format in all cases: in vivo
[1] = test system: Eucalyptus x trabutii cuttings; assay: rooting of Eucalyptus x trabutii cuttings; conditions: for mean root number per cutting, E. x trabutii: K-IBA alone or with 100 μM compound; for callus formation in E. x trabutii / mean root number and mean root length, E. x trabutii, relative to IBA alone, in words / rooting rate of E. x trabutii compared with IBA alone, in words: K-IBA with 100 μM compound
Description: (§1) In order to investigate cloning of productive eucalyptus trees from cuttings, branches were excised from mature Eucalyptus x trabutii and Eucalyptus brachyphylla trees the field (in Kfar Pines, Israel)—selected based on their exceptional nectar production and honeybee attraction—placed in a humidified cooler box and brought to a climate-controlled greenhouse within 2 hours. Each cutting, 7 cm long, included three nodes with only two leaves remaining at its apical end. Two-thirds of each blade was excised to minimize evapotranspiration. The cutting bases were submerged for 1 minute in 6 grams/liter indole-3-butyric acid potassium salt (K-IBA), optionally supplemented with Compound 1s or 1t at a concentration of 100 μM. In addition, the leaves were sprayed with 100 μM of each compound in the presence of 0.05% Triton X-100 surfactant. Stock solutions of Compounds 1s and 1t were at a concentration of 100 mM in DMSO. The cuttings were planted in rooting medium containing peat, vermiculite and polystyrene flakes at a ratio of 1:2:3 respectively, on a heated rooting table under 90% humidity. Fungicides were applied to the rooting media on a weekly basis. Rooting percentage, number of roots per cutting and root length were measured after 1 and 2 weeks and after 1 and 2 months.

[2] = test system: argan (Argania spinosa) cuttings; assay: rooting of argan cuttings; conditions: 100 μM conjugate with 6000 ppm IBA
Description: The ability of exemplary conjugates to promote rooting in plants which are recalcitrant to rooting (in addition to the results obtained with Eucalyptus grandis in Example 3) was examined using cuttings of argan (Argania spinosa) and jojoba (Simmondsia chinensis) in a commercial nursery (Shorashim). The argan and jojoba cuttings were treated with 100 μM of a conjugate (any of Compounds 10-1t) with 6000 ppm IBA. The common treatment T-8 (talc with 8000 ppm IBA and a fungicide) or 6000 ppm IBA (without conjugate) served as a control.
Exemplary conjugates were also tested for rooting the hard-to-root species of avocado (VC801 rootstock) and argan, according to procedures described hereinabove.

[3] = test system: cuttings from mature Eucalyptus grandis trees; assay: rooting of cuttings from mature Eucalyptus grandis trees; conditions: for appearance of the roots compared with IBA alone: 6000 ppm IBA with 100 μM compound
Method in brief: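 Cuttings (12-15 cm, two upper leaves halved) from branches of 8-year-old net-house plants; bases dipped 1 min in 6000 ppm IBA potassium salt plus 50 μM conjugate, leaves sprayed with 50 μM conjugate in 0.5% Triton X-100. Rooted at 25° C, 90% humidity, peat:vermiculite:polystyrene 1:2:3; rooting scored after 30-60 days.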

[4] = test system: Eucalyptus brachyphylla cuttings; assay: rooting of Eucalyptus brachyphylla cuttings; conditions: for mean root number per cutting, E. brachyphylla: K-IBA alone or with 100 μM compound; for mean root length, E. brachyphylla, relative to IBA alone, in words: K-IBA with 100 μM compound
Description: as §1

Arabidopsis seedlings = assay: split petri dish assay, separate shoot or root application in etiolated Arabidopsis seedlings; conditions: 10 μM; for adventitious root formation, exposure of shoots compared to exposure of roots / lateral root formation, shoot application compared with root application: split dish
Text: The observation that AR enhancement in Eucalyptus cuttings was higher when 4-CPA conjugates were applied also to the leaves (as described in Example 3) prompted further investigation into the functions of shoot-derived 4-CPA. To this end, 4-CPA or Compounds 1p and it were applied specifically to roots or shoots of five-day old etiolated Arabidopsis seedlings using a split petri dish (as depicted in FIG. 26) and the effect on root elongation, lateral root (LR) formation and adventitious root (AR) formation was evaluated.
Arabidopsis plants were germinated and grown in the dark for 5 days, then then transferred to petri dishes with a partition in the middle. Each half of these plates contained either medium alone or with 10 μM of 4-CPA or Compound 1p or 1tl. The etiolated seedlings were put on the plates with their collet region on the partition such that either the hypocotyl and cotyledons, or the root or both were in touch with the medium containing the tested compound. Adventitious roots and lateral roots were counted and the length of the primary root was measured after a week.

[5] = IBA with 100 μM compound, submersion and spraying

| SMILES | mean root number per cutting, E. x trabutii [1] | callus formation in E. x trabutii [1] | mean root number and mean root length, E. x trabutii, relative to IBA alone, in words [1] | rooting rate of E. x trabutii compared with IBA alone, in words [1] | rooting percentage in argan compared with IBA alone, in words [2] | appearance of the roots compared with IBA alone ([3]; submersion and spraying) | mean root number per cutting, E. brachyphylla [4] | mean root length, E. brachyphylla, relative to IBA alone, in words [4] | effect on root growth of application to the shoot compared with application directly to the root (Arabidopsis seedlings; 24 hours on split dish) | adventitious root formation, exposure of shoots compared to exposure of roots (Arabidopsis seedlings) | lateral root formation, shoot application compared with root application (Arabidopsis seedlings) | percentage of adventitious root formation (rooting) ([3]; 6000 ppm IBA and 100 μM conjugate by submersion of base plus spraying of foliage) [%] | number of root tips compared with IBA alone (WinRHIZO) [3, 5] | total root length compared with IBA alone (WinRHIZO) [3, 5] |
| --- | --- | --- | --- | --- | --- | --- | --- | --- | --- | --- | --- | --- | --- | --- |
| COC(=O)[C@@H](Cc1c[nH]c2ccccc12)NC(=O)COc1ccc(Cl)cc1 [Compound 1s, 4-CPA-D-Trp] | about 5 | no calluses were observed | no apparent effect | considerably higher | considerably higher rooting percentages | appeared more branched | about 2 | enhanced mean root length | – | – | – | – | – | – |
| COC(=O)[C@H](Cc1c[nH]c2ccccc12)NC(=O)COc1ccc(Cl)cc1 [Compound 1t, 4-CPA-L-Trp] | about 5 | no calluses were observed | no apparent effect | considerably higher | considerably higher rooting percentages | appeared more branched | about 2 | enhanced mean root length | comparable | significantly more adventitious root formation | inhibited lateral root formation more efficiently than application to roots | 51±7 | considerably enhanced the number of root tips | considerably enhanced the total root length |
| O=C(O)COc1ccc(Cl)cc1 [Compound 4-CPA, 4-chloro-phenoxyacetic acid, reference compound] | – | – | – | – | – | – | – | – | – | significantly more adventitious root formation | inhibited lateral root formation more efficiently than application to roots | – | – | – |
